Measured values from US7098234B2, “Indole derivatives, process for preparation of the same and use thereof” (Ono Pharmaceutical Co., Ltd., priority 2000, dated 2006).

How the values were obtained:
mouse DP receptor [1] = target: T1, mouse DP receptor (Mus musculus, UniProt P70263); experiment: Receptor binding test using prostanoid DP receptor-expressing cells (3H-PGD2 binding inhibition); conditions: CHO cell membranes expressing mouse DP receptor; 3H-PGD2 2.5 nmol/L; Ki=IC50/(1+([L]*/Kd))
T1 construct: expressed in transfected cells; host or cells: CHO cells (membrane fraction)
T1 sequence (P70263 1-357): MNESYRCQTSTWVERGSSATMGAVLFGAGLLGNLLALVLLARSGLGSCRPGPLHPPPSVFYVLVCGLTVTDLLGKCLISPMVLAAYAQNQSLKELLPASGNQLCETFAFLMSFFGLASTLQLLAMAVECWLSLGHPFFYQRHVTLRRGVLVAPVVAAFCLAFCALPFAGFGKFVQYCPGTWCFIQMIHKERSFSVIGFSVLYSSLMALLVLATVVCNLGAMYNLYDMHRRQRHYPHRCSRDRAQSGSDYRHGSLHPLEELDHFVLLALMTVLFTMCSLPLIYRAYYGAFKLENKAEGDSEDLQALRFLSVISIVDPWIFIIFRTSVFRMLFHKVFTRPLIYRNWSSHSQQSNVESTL
Procedure: The compound of the present invention represented by formula (I) potently binds to a DP receptor and show an antagonistic activity. For example, in a laboratory test, such effects were confirmed by the following receptor binding test using prostanoid receptor-expressing cells. • (i) Receptor binding test using prostanoid DP receptor-expressing cells
CHO cells expressing a mouse DP receptor was prepared according to the method of Hirata et al. (Proc. Natl. Acad. Sci., 91, 11192–11196 (1994)) and used as a membrane standard.
A reaction solution (200 μL) containing the prepared membrane standard (30–166 μg) and ^3H-PGD2 was incubated at room temperature for 20 minutes. The reaction was stopped with an ice-cold buffer (1 mL) and the binding ^3H-PGD2 was trapped in on a glass filter by immediate aspiration-filtration under a reduced pressure, and its binding radioactivity was measured using a liquid scintillation counter.
A Kd value and a Bmax value were obtained from Scatchard plots (Ann. N.Y. Acad. Sci., 51, 660 (1949)). Non-specific binding was obtained as the binding radioactivity in the presence of unlabeled PGD2 at an excess amount (10 μmol/L). ^3H-PGD2 binding inhibition by the compound of the present invention was measured by adding ^3H-PGD2 (2.5 nmol/L) and the compound of the present invention as various concentrations. Also, the following buffers were used for the reactions. […]

mouse DP receptor [2] = target: T1, mouse DP receptor; experiment: DP antagonistic activity assay using prostanoid DP receptor-expressing cells (cAMP production by PGD2); assay type: cell-based; conditions: CHO cells expressing mouse DP receptor; inhibition of cAMP production by PGD2 at 100 nM
Procedure: As shown in the above results, it is apparent that the compound of the present invention potently binds to a DP receptor. • (ii) DP antagonistic activity assay using prostanoid DP receptor-expressing cells
CHO cells expressing a mouse DP receptor were prepared according to the method of Nishigaki et al. (FEBS lett., 364, 339–341 (1995)), inoculated onto a 24-well microplate at 10^5 cells/well, followed by culturing for 2 days, and used for the assay. Each well was washed with 500 μL of MEM (minimum essential medium), and 450 μL of assay medium (MEM containing 1 mmol/L IBMX and 0.1 or 1% BSA), followed by incubation at 37° C. for 10 minutes. Then, an assay medium (50 μL) containing PGD2 alone or PGD2 with a test compound was added thereto to start the reaction, and after the reaction at 37° C. for 10 minutes, 500 μL of ice-cold trichloroacetatic acid (TCA) (10% w/v) was added thereto to stop the reaction. The reaction solution was frozen once (−80° C.) and thawed, and cells were peeled using a scraper, followed by centrifugation at 13,000 rpm for 3 minutes. The cAMP concentration was measured with a cAMP assay kit using the resulting supernatant. […] Trichloro acetic acid (TCA) was extracted to the chloroform layer and removed, the cAMP amount in a sample was determined using the aqueous layer as the sample according to the method described in the [^125I]cAMP assay kit. […]

| Ki (mouse DP receptor [1]) [nM] | IC50 (mouse DP receptor [2]) [nM] | SMILES |
| --- | --- | --- |
| 1.8 | 120 | Cc1cc2c(CC(=O)O)cccc2n1C(=O)c1ccc(OCCc2ccccc2)cc1 [1(3)] |
| 4.3 | – | CCCCCOc1ccc(C(=O)n2c(C)cc3c(CC(=O)O)cccc32)cc1 [1(4), 1-(4-Pentyloxybenzoyl)-2-methylindole-4-acetic acid] |
